Measured values from patent US5395828A, “Inositol phosphate analogues as calcium-antagonistic substances” (Hoechst Aktiengesellschaft, priority 1991, dated 1995).

System: human platelets
Assay: Calcium release in saponin-permeabilized human platelets (Quin2 fluorescence)
Format: cell-based
Settings: Platelet, pH 7.4, increase in Quin2-fluorescence, read-out: EC50 (effective concentration), release of Calcium
Experimental: Human platelets were purified in the presence of citrate by differential centrifugation and resuspended to ca 1×10exp9 cells/ml in Tyrode-HEPES-(N-2-hydroxyethyl-piperazine-N'-2 ethane-sulfonic acid)-buffer pH 7.4 containing 0.2% w/v Bovine Serum Albumin and 1 mM EGTA (Ethylene Glycol Bis (β-Aminoethyl Ether)N,N,N',N'-Tetraacidic acid). After 20 min, the platelets were centrifuged again (700×g, 20 min) and resuspended to the same concentration in 4 ml of "assay-buffer" containing:
1.2 mM Potassiumdihydrogenphosphate
25 mM HEPES-buffer, pH as indicated
After a further 30 min, the platelet suspension was diluted 5-fold into assay-buffer containing 2 μM Quin2 (2-[[2-[bis(carboxymethyl)amino]-5-methyl-phenoxy]methyl]-6-methoxy-8-[bis[…]]quinoline) salt as a fluorescence indicator for Calcium. To this suspension Saponin was added to a final concentration of 20 μg/ml to permeabilize the cells. The fluorescence of the suspension was continually monitored with a fluorescence spectrometer until a stable baseline was achieved. At this point, IP3 was added and the resulting release of Calcium measured as an increase in the intensity of the Quin2-fluorescence. An EC50 (effective concentration) value of 2×10exp-7M was obtained at pH 7.4. IP2-5-MP itself had no effect on release of Calcium. […]

An EC50 of 200 nM was found for `O=P(O)(O)O[C@@H]1[C@H](O)[C@H](O)[C@@H](OP(=O)(O)O)[C@H](OP(=O)(O)O)[C@H]1O` [IP3, d-myo inositol(1.4.5)trisphosphate] in this work.
